Consider 13 compounds from patent publication US20090325992A1, “COMPOUND HAVING CYCLIC GROUP BOUND THERETO THROUGH SPIRO BINDING AND USE THEREOF” (ONO PHARMACEUTICAL CO., LTD., priority 2006, published 2009).

Some results are limits rather than exact numbers.

Data set [1] has as its target T1, CXCR4 (human T cell strain CEM cells) (Homo sapiens, UniProt P61073).
T1 construct: a human T cell strain in which CXCR4 is known to be expressed; endogenous in cells; host or cells: CEM cells (human T cell strain)
The data set can be described thus: Inhibition of binding human SDF-1 to CEM cells (125I-SDF-1). The following applies: 4° C., 60 minutes. How it is done: Specifically, as a system of screening a compound that inhibits the binding between SDF-1 and CXCR4, for example a system of measuring the binding between iodine-labeled SDF-1 and a human T cell strain in which CXCR4 is known to be expressed is operable.
Study for Inhibition of Binding Human SDF-1 to CEM Cells
To human T cell strain CEM cells in a binding buffer (containing HEPES and BSA), the test compound and ^125I-SDF-1 (PerkinElmer) were added and the mixture was incubated at 4° C. for 60 minutes. The reacted CEM cells were rapidly filtrated with a GF/B membrane filter plate (Packard) to adsorb. The plate was washed with phosphate buffered saline (hereinafter abbreviated to PBS) three times and then dried. Microscint+20 (Packard) was added thereto. An amount of the radioactivity bound to the CEM cells was measured using Top Count (Packard) and inhibition (%) of the test compound was calculated according to the following equation:
Inhibition={(Et−Ea)/(Et−Ec)}×100 [Equation 1]
Et: Amount of radioactivity when the test compound is not added,
Ec: Amount of radioactivity when non-radioactive SDF-1 (Pepro Tech) is added in an amount of 1,000 times as much as ^125I-SDF-1 as a test compound, and
Ea: Amount of radioactivity when the test compound is added.

A short description of data set [2]: Measurement of maximum plasma level (Cmax) and stationary state distribution volume (Vss). The following applies: male, Crl:CD(SD), rat, iv, 1 mg/kg.
Method: Measurement of Maximum Plasma Level (Cmax) and Stationary State Distribution Volume (Vss)
A compound to be evaluated is weighed, dissolved in WellSolve (trade name; manufactured by Celeste Corporation) which is heated to 60° C. and adjusted to 20 mg/mL; thereafter, the test compound is diluted by 10 times with distilled water for injection, and further diluted by 2 times with saline solution, by which intravenously administered solution is eventually made. A compound to be evaluated is dissolved in WellSolve which is heated to 60° C. and adjusted to 50 mg/mL; thereafter, the compound to be evaluated is diluted with distilled water for injection and adjusted to 1 mg/mL. Five compounds (one set) were mixed in the same amount and adjusted to final concentration of 0.2 mg/mL per one compound, by which orally administered solution is eventually made. […] The administration is conducted under fasting conditions; water is freely ingested. In the case of intravenous administration, a 0.35 mL of blood sample is taken from cervical vein by using Heparinized Syringe at 5 minutes, 15 minutes, 30 minutes, 1 hour, 2 hours, 4 hours, 6 hours, 8 hours, and 24 hours after administration. […] The obtained blood is stored in ice, and after centrifugation at 12,000 rpm for 3 minutes, blood plasma is fractionated. In the case of intravenous administration, the blood plasma sample preserved at a temperature of −80° C. is dissolved; inner standard solution (100 μL) and acetonitrile (2 mL) are added to the blood plasma sample (100 μL) and stirred, and the sample is centrifuged at 2,500 rpm for 10 minutes.
After the supernatant centrifuged is evaporated to dryness by means of a centrifugal concentrator, 67% dimethyl sulfoxide solution (150 μL) is added to the residue and dissolves them again and 20 μL of the solution is analyzed by means of LC/MS/MS.
Measurement device: Waters 2795 (manufactured by Waters Corporation) Analytical column: Unison UK-C18, 3.0 μm particle size, 2.0 mm×30 mm (manufactured by Imtakt Corporation) Analytical column temperature: Room temperature Flow rate: 200 μL/min Moving bed: 5 mM IPC-PFAA-7 solution/acetonitrile (9/1→1/9)
Measurement device: Quatro micro API (manufactured by Micromass Communications Inc.) Scan type: MPM
The monitor ion which was suitable for each sample was selected.
A portion of the compound to be intravenously administered was subjected to the following treatment. The blood plasma sample preserved at a temperature of −80° C. is dissolved; inner standard solution (50 μL) and acetonitrile (1 mL) are added to the blood plasma sample (50 μL) and stirred, and the sample is centrifuged at 3,000 rpm for 10 minutes. After the supernatant is evaporated to dryness by means of a centrifugal concentrator, the residue was redissolved in water/acetonitrile (1/1) and the solution is analyzed by means of LC/MS/MS under the following conditions.
Measurement device: 1200 series system (manufactured by Agilent Technologies) Analytical column: Asahipak OOD-50 2D, 2×150 mm (manufactured by Showa Denko K.K.) Analytical column temperature: Room temperature Moving bed: 5 mM IPC—PFAA-7 solution/acetonitrile (gradient) Flow rate: 200 μL/min
Data set [3] has as its system CHL/IU (cell line derived from a Chinese hamster lung). The experiment in a line: Phospholipidosis detecting system using fluorescent labeling phospholipid analog (NBD-PE). As to conditions: for Rate of increase of phospholipid accumulation (%) (compound dose: 200 μM): CHL/IU cells, compound dose 200 μM, about 48 hours, relative to NBD-PE control; for Determination (phospholipidosis, NBD-PE system): positive = 25% or more of the maximum increase rate of amiodarone. It is filed as cell-based. Here is the method: Investigation with Phospholipidosis Detecting System using Fluorescent Labeling Phospholipidosis Analog under Severity Condition (1) Phospholipid Accumulation Measurement 100 μL/well as required (1 dose 2 wells) of cell suspension of CHL/IU (cell line derived from a Chinese hamster lung) (7×10^4 cells/mL) prepared by MEM (minimum essential medium) culture medium was added to a 96-well plate (96-well clear-bottom plate), and cultured for about 24 hours. After culture, the supernatant of the 96-well plate was removed, and the 100 μL/well compounds of each concentration dissolved and suspended in an MEM including 25 μmol/L nitrobenzoxadiazole dipalmitoyl phosphatidylethanolamine (NBD-PE) (hereinafter abbreviated as a NPD-PE medium) were added and treated for about 48 hours. The treatment concentrations of each compound were set to be 5, 50, 100 and 200 μM. The positive control substance was set to be amiodarone hydrochloride, and the treatment concentrations were set to be 1.25, 2.5, 5, 10 and 20 μM. In addition, 5-well untreated controls (only MEM) and 5-well NBD-PE controls (made by means of adding a 1/100 amount of DMSO to the NBD-PE culture medium) were set per compound, and cultured in the same manner. After finishing the culture, the cultures were washed twice with phosphate buffered saline (hereinafter abbreviated as PBS) (−) 100 μL/well, and the MEM (100 μL) was added to all of the treatment wells including two empty wells for WST-1 background controls and cultured for about a half hour. The fluorescence intensities of each well were measured by using a microplate reader (manufactured by Molecular Devices Inc., SPECTRA max M2; the excitation wavelength 485 nm/fluorescence wavelength 535 nm). (2) Analysis Using the average values of each dose×2 wells, a phospholipid increase rate (%) to the NBD-PE control was calculated by using the following calculating formula: Rate of increase of phospholipid accumulation (%)=100×{(test compound fluorescence intensity−non-treated control fluorescence intensity)/(NBD-PE control fluorescence intensity−non-treated control fluorescence intensity)} [Equation 2] (3) Cytotoxicity Assay 96-well plate measured in the phospholipid accumulation measurement was measured by means of Plate Reader (manufactured by Molecular Devices Inc., SPECTRA max M2) with the main wavelength of 450 nm and the correct wavelength of 690 nm to calculate a Pre value. An amount of 5 μL/well of Premix WS T-1 was added to each of the 96-hole plates by which Pre measurement was conducted. After culture for 2 to 4 hours, the 96-well plate was measured as well as the Pre measurement to calculate an Aft value. Then, the background control value was subtracted from the each measured value. A value which was calculated by subtracting the Pre value from the Aft value was used, then the cell growth rate (%) was calculated by using the following calculating formula: Cell growth rate (%)=100×[(test substance OD)/(NBD-PE control OD)] [Equation 3] (4) Determination A test dose that indicated value of 25% or more of the maximum phospholipid accumulation increase rate of amiodarone which was the positive control was determined as positive. In addition, the dose whose cell growth rate was equal to or less than 50% in the cytotoxicity assay was not used for determination of existence or nonexistence of a phospholipidosis inductive effect.

Data set [4] is described as follows: Artificial lipid membrane binding using Biacore S51 system. As to conditions: for Value of binding response (RU): DOPA liposome, 50 μM compound, PBS/5% DMSO pH 7.4, 37° C., corrected value; for Determination (artificial lipid membrane binding): positive = corrected binding response 150 or more. (Surface plasmon resonance follows binding to a sensor surface in real time, without labels.)
Method: Artificial Lipid Membrane Binding Account by using Biacore® S51 System
10 mM of 1,2-dioleoyl-sn-glycero-3-phosphate monosodium salt (hereinafter abbreviated as DOPA) chloroform solution was evaporated to dryness by means of an aspirator, and 0.6 mL of PBS/5% dimethyl sulfoxide (hereinafter abbreviated as DMSO) was added. The chloroform solution was fully suspended by means of a vortex mixer, and the freezing and thawing were repeated for 5 times. Liposome was created by means of a liposome preparation instrument (manufactured by Avestin Inc.) and two syringes, and was diluted to 0.5 mM with PBS/5% DMSO just prior to immobilization.
(2) Measurement Compound Preparation
38 μl of 1×PBS is added to 2 μl of a DMSO solution (10 mM), and further the 360 μl of 1×PBS/5% DMSO was added and the 50 μM of final concentration in PBS/5% DMSO was prepared and measured.
All of the following analysis used Biacore® S51 system and the measurement conditions were set by Biacore S51 Control Soft.
The measurement temperature was set to be 37° C., and PBS/5% DMSO (pH 7.4 or 6.0) was used as a buffer. Series S Sensor Chip L1 was used for a sensor chip. DOPA was immobilized in one of the measuring spots on the sensor surface and the central spot was used as a reference.
Immobilization of liposome was conducted at a flow rate of 10 μL/min for about 3 minutes and then the compound was added at a flow rate of 30 μL/min and the interaction was measured. The measurement conditions are as follows:
Assay buffer: PBS/5% DMSO (pH 7.4) Measurement temperature: 37° C. Sensor chip: Series S Sensor Chip L1 Flow rate: 10 μL/min at the time of the liposome immobilization; 30 μL/min at the time of the measurement of interaction with the compound Regeneration: 20 mM CHAPS (3-[(3-cholamidopropyl)dimethylammonio]-1-propanesulfonate), isopropylalcohol/aqueous 50 mM sodium hydroxide solution=40/60 (volume ratio) mixture solution (60 seconds)
The data processing was conducted by means of method of Abdiche et al., (Analytical biochemistry, 328, 233-243 (2004)) by using Biacore S51 Evaluation Soft.
Regarding the value of binding response (RU) in which the value of reference was subtracted, it was divided by a sample molecular weight after minute error of the DMSO concentration included in the sample solution was corrected. In addition, the value obtained here was divided by an amount of capture at the time of the cycle because the value obtained here was proportional to the amount of capture of the liposome and the value was multiplied by a million to be considered as a corrected value (Corrected value=1,000,000×RU (test compound)/molecular quantity (test compound) RU (liposome)).
The compound wherein a value of the binding response after the correction was 150 or more was determined as positive.

T1 sequence (P61073 whole entry): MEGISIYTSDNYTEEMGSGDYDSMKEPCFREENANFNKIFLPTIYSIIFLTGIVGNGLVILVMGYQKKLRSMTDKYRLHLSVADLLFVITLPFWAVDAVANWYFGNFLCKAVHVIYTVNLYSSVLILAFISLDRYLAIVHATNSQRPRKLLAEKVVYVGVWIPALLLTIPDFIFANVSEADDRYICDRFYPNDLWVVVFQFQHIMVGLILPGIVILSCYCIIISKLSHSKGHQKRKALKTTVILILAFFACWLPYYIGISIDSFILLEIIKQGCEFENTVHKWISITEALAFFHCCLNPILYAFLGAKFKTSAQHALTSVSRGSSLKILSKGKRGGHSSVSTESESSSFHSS

Usually IC50 stands for the concentration at which inhibition is half-maximal. Low values mean inhibition by little substance, high ones a need for much substance. In data set [1], `CCOC(=O)CCc1ccc(CN(Cc2ncc[nH]2)Cc2nccn2CCCN2CCC3(CCN(C(CC)CC)CC3)C2)s1` [Example 42(4), Ethyl 3-[5-({[(1-{3-[8-(1-ethylpropyl)-2,8-diazaspiro[4.5]deca-2-yl]propyl}-1H-imidazol-2-yl)methyl](1H-imidazol-2-ylmethyl)amino}methyl)-2-thienyl]propanoate] registered an IC50 of 4.4 nM.

As for `CCOC(=O)COc1ccc(CN(Cc2ncc[nH]2)Cc2nccn2CCCN2CCC3(CCN(C4CCCCC4)CC3)C2)cc1` [Example 40(12), Ethyl (4-{[({1-[3-(8-cyclohexyl-2,8-diazaspiro[4.5]deca-2-yl)propyl]-1H-imidazol-2-yl}methyl)(1H-imidazol-2-ylmethyl)amino]methyl}phenoxy)acetate], the IC50 in data set [1] is no more than 3 nM.

As usually defined, the Vd is the apparent volume that relates the amount in the body to the concentration in plasma or blood. In data set [2], `CC(C)CN1CCC2(CC1)CCN(CCCn1ccnc1CN(Cc1ccc(CC(=O)O)cc1)Cc1ncc[nH]1)C2` [Example 22(4), (4-{[(1H-imidazol-2-ylmethyl)({1-[3-(8-isobutyl-2,8-diazaspiro[4.5]deca-2-yl)propyl]-1H-imidazol-2-yl}methyl)amino]methyl}phenyl)acetic acid] yielded a Vd of 1.1 L/kg. For the same compound, in data set [3], the “Rate of increase of phospholipid accumulation (%) (compound dose: 200 μM)” value (“Rate of increase … (%) (compound dose: 200 μM)” below) was found to be 16% and the “Determination (phospholipidosis, NBD-PE system)” value is given as “Negative”. In data set [1], this compound came in with an IC50 of 20.7 nM. Further, in data set [4], the “Value of binding response (RU)” value was determined as 23.4 RU and the “Determination (artificial lipid membrane binding)” value was “Negative”.

For `CCC(CC)N1CCC2(CCN(CCCn3ccnc3CN(Cc3ccc(OCC(=O)O)cc3)Cc3ncc[nH]3)C2)CC1` [Example 43, [4-({[(1-{3-[8-(1-ethylpropyl)-2,8-diazaspiro[4.5]deca-2-yl]propyl}-1H-imidazol-2-yl)methyl](1H-imidazol-2-ylmethyl)amino}methyl)phenoxy]acetic acid], in data set [2], the Vd turned out to be 0.65 L/kg. In data set [3], the “Rate of increase … (%) (compound dose: 200 μM)” value turned out to be 16% and the “Determination (phospholipidosis, NBD-PE system)” value is given as “Negative”. In data set [1], this compound had a half-maximal inhibitory concentration (IC50) of 4 nM. Further, in data set [4], the “Value of binding response (RU)” value amounted to 36.1 RU and the “Determination (artificial lipid membrane binding)” value is recorded as “Negative”.

For `O=C(O)COc1cccc(CN(Cc2ncc[nH]2)Cc2nccn2CCCN2CCC3(CCN(C4CCCCC4)CC3)C2)c1` [Example 41(7), (3-{[({1-[3-(8-cyclohexyl-2,8-diazaspiro[4.5]deca-2-yl)propyl]-1H-imidazol-2-yl}methyl)(1H-imidazol-2-ylmethyl)amino]methyl}phenoxy)acetic acid], in data set [3], the “Rate of increase … (%) (compound dose: 200 μM)” value came out at 21% and the “Determination (phospholipidosis, NBD-PE system)” value was “Negative”. Also, in data set [1], the IC50 came out at 4.5 nM. In data set [4], the “Value of binding response (RU)” value was 63.6 RU and the “Determination (artificial lipid membrane binding)” value is “Negative”.

Compound `CCOC(=O)COc1ccc(CN(Cc2ncc[nH]2)Cc2nccn2CCCN2CCC3(CCN(C(CC)CC)CC3)C2)cc1` [Example 42, Ethyl [4-({[(1-{3-[8-(1-ethylpropyl)-2,8-diazaspiro[4.5]deca-2-yl]propyl}-1H-imidazol-2-yl)methyl] (1H-imidazol-2-ylmethyl)amino}methyl)phenoxy]acetate] gave an IC50 in data set [1] of 3 nM.

Compound `COC(=O)Cc1ccc(CN(Cc2ncc[nH]2)Cc2nccn2CCCN2CCC3(CCN(CC(C)C)CC3)C2)cc1` [Example 21(4), Methyl (4-{[(1H-imidazol-2-ylmethyl)({1-[3-(8-isobutyl-2,8-diazaspiro[4.5]deca-2-yl)propyl]-1H-imidazol-2-yl}methyl)amino]methyl}phenyl)acetate] had an IC50 in data set [1] of 7.4 nM.

With `CCC(CC)N1CCC2(CCN(CCCn3ccnc3CN(Cc3cccc(SCC(=O)O)c3)Cc3ncc[nH]3)C2)CC1` [Example 43(2), {[3-({[(1-{3-[8-(1-ethylpropyl)-2,8-diazaspiro[4.5]deca-2-yl]propyl}-1H-imidazol-2-yl)methyl](1H-imidazol-2-ylmethyl)amino}methyl)phenyl]thio}acetic acid], the IC50 in data set [1] was found to be 9.3 nM.

In the case of `CCOC(=O)COc1cccc(CN(Cc2ncc[nH]2)Cc2nccn2CCCN2CCC3(CCN(C(CC)CC)CC3)C2)c1` [Example 42(1), Ethyl [3-({[(1-{3-[8-(1-ethylpropyl)-2,8-diazaspiro[4.5]deca-2-yl]propyl}-1H-imidazol-2-yl)methyl] (1H-imidazol-2-ylmethyl)amino}methyl)phenoxy]acetate], the IC50 in data set [1] is no more than 3 nM.

Regarding `O=C(O)COc1ccc(CN(Cc2ncc[nH]2)Cc2nccn2CCCN2CCC3(CCN(C4CCCCC4)CC3)C2)cc1` [Example 41(6), (4-{[({1-[3-(8-cyclohexyl-2,8-diazaspiro[4.5]deca-2-yl)propyl]-1H-imidazol-2-yl}methyl)(1H-imidazol-2-ylmethyl)amino]methyl}phenoxy)acetic acid], in data set [3], the “Rate of increase … (%) (compound dose: 200 μM)” value worked out at 16% and the “Determination (phospholipidosis, NBD-PE system)” value was “Negative”. The same compound displayed an IC50 in data set [1] of 4.4 nM. In data set [4], the “Value of binding response (RU)” value was determined as 72.9 RU and the “Determination (artificial lipid membrane binding)” value is “Negative”.

Take `CCOC(=O)CCCn1ccnc1CN(C)Cc1nccn1CCCN1CCC2(CCN(CC(C)C)CC2)C1` [Example 47(4), Ethyl 4-(2-{[({1-[3-(8-isobutyl-2,8-diazaspiro[4.5]deca-2-yl)propyl]-1H-imidazol-2-yl}methyl)(methyl)amino]methyl}-1H-imidazol-1-yl)butanoate]: in data set [1], the IC50 stood at 4.3 nM.

As to `CCC(CC)N1CCC2(CCN(CCCn3ccnc3CN(Cc3ccc4cc(OCC(=O)O)ccc4c3)Cc3ncc[nH]3)C2)CC1` [Example 43(3), {[6-({[(1-{3-[8-(1-ethylpropyl)-2,8-diazaspiro[4.5]deca-2-yl]propyl}-1H-imidazol-2-yl)methyl](1H-imidazol-2-ylmethyl)amino}methyl)-2-naphthyl]oxy}acetic acid], the IC50 in data set [1] is 13.6 nM.

Compound `CCOC(=O)COc1cccc(CN(Cc2ncc[nH]2)Cc2nccn2CCCN2CCC3(CCN(C4CCCCC4)CC3)C2)c1` [Example 40(13), Ethyl (3-{[({1-[3-(8-cyclohexyl-2,8-diazaspiro[4.5]deca-2-yl)propyl]-1H-imidazol-2-yl}methyl)(1H-imidazol-2-ylmethyl)amino]methyl}phenoxy)acetate] returned an IC50 in data set [1] of no more than 3 nM.
